{"source": "patent US7892350B2", "about": "“Sacrificial agents for fly ash concrete” (Boral Material Technologies Inc., priority 2003, dated 2011)", "key": {"[1]": {"assay": "Paste air entrainment, Minimum air protocol", "how_it_was_run": "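Pastes of 400 g cementitious powder were hand-mixed 1 min, then machine-stirred 2 min at 25° C with the mixer 1.0 inch off the bottom and a 1.0 inch stroke. Water was set for a 115±5 mm mini-slump spread without additives. Air content came from the mass of a filled cylinder at 6, 36 and 66 min, with 1 min hand stirring before each reading.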"}, "[2]": {"assay": "Air entrainment in fresh concrete (ASTM C 231-97)", "conditions": "for Air: PCC cement concrete, no fly ash, no Air 40", "method": "The sacrificial agents were added to the cementitious mixtures in several ways: • 1) mixing together with water and air entrainment agent solution • 2) premixed with the fly ash • 3) post-added into the fresh concrete which already contained the air entrainment agent."}, "[3]": {"assay": "Adsorption/precipitation of SA or AEA in 10 wt % aqueous fly ash or cement slurries at pH 12.5", "type": "physicochemical", "conditions": "initial SA 3 mM"}, "[4]": {"assay": "Precipitation in slurry extract or leachate", "type": "physicochemical", "conditions": "pH 12.5, entries in parentheses"}, "[5]": {"assay": "Paste air entrainment, Maximum air protocol", "conditions": "for Air entrained at 66 min: Air 30 (0.0125 wt %)/X/ButOH=1/4/4, X = the labelled sulfonated SA", "how_it_was_run": "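Pastes of 400 g cementitious powder in water plus additives, hand-mixed 1 min then mixer-stirred 2 min at 25 °C; water/binder ratio set so additive-free paste gives 115±5 mm mini-slump spread at 10 min. Air content calculated from mass of paste filling a fixed-volume cylinder at 6, 36 and 66 min, paste at rest between readings and hand-stirred 1 min beforehand.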"}}, "note": "Several values for one entry are separate records, joined by “and”; a condition that tells them apart may be missing. Equal values may be shown once."}
{"substance": "Sodium Di-isopropopyl naphthalene sulfonate [ND]", "values": [{"measurement": "Air entrained", "setting": "[1]; 50:50 fly ash B1 (LOI 4.36%):PCA paste, 0.1 wt % Air 30 alone or with 0.05 wt % of the SA", "value": 4, "unit": "vol %"}, {"measurement": "Air entrained", "setting": "[1]; 50:50 fly ash C1 (LOI 1.62%):PCA paste, 0.1 wt % Air 30 alone or with 0.05 wt % of the SA", "value": 4, "unit": "vol %"}, {"measurement": "Air entrained", "setting": "[1]; 50:50 fly ash D (LOI […]):PCA paste, 0.1 wt % Air 30 alone or with 0.05 wt % of the SA", "value": 3, "unit": "vol %"}, {"measurement": "Air entrained", "setting": "[1]; 50:50 fly ash M1 (LOI […]):PCA paste, 0.1 wt % Air 30 alone or with 0.05 wt % of the SA", "value": 5, "unit": "vol %"}, {"measurement": "Air entrained", "setting": "[1]; 50:50 fly ash M2 (LOI 5.34%):PCA paste, 0.1 wt % Air 30 alone or with 0.05 wt % of the SA", "value": 4, "unit": "vol %"}, {"measurement": "Air entrained", "setting": "[1]; 50:50 fly ash M3 (LOI 11.33%):PCA paste, 0.1 wt % Air 30 alone or with 0.05 wt % of the SA", "value": 4, "unit": "vol %"}, {"measurement": "Air entrained", "setting": "[1]; 50:50 fly ash R (LOI […]):PCA paste, 0.1 wt % Air 30 alone or with 0.05 wt % of the SA", "value": 3, "unit": "vol %"}, {"measurement": "Air entrained", "setting": "[1]; PCA cement paste, 0.1% SA or AEA alone, Minimum air protocol", "value": 3, "unit": "vol %"}, {"measurement": "Average of air entrained", "setting": "[1]; over the fly ash:PCA pastes of Table 7, 0.1 wt % Air 30 alone or with 0.05 wt % of the SA", "value": 4, "unit": "%"}, {"measurement": "Air", "setting": "[2]; ND alone 0.001 % CM", "value": 2.3, "unit": "%"}, {"measurement": "Air", "setting": "[2]; ND alone 0.003 % CM", "value": "4.1% and 3.1%"}, {"measurement": "Air", "setting": "[2]; ND alone 0.005 % CM", "value": "4.6% and 4.8%"}, {"measurement": "Air", "setting": "[2]; ND alone 0.010 % CM", "value": 4.6, "unit": "%"}, {"measurement": "Air", "setting": "[2]; ND alone 0.020 % CM", "value": 3.9, "unit": "%"}, {"measurement": "Air", "setting": "[2]; ND alone 0.030 % CM", "value": 3.8, "unit": "%"}, {"measurement": "Air", "setting": "[2]; ND alone 0.040 % CM", "value": 3.9, "unit": "%"}, {"measurement": "increase in air entrained above the control values", "setting": "[2]; cement-only concrete without air entrainment agents, various dosages", "value": "2-3%"}, {"measurement": "Adsorption (wt % Adsorbed)", "setting": "[3]; 10 wt % fly ash B1 (LOI 4.36%) slurry, Air 30/Air 40 0.105 wt %", "value": 14, "unit": "wt %"}, {"measurement": "Adsorption (wt % Adsorbed)", "setting": "[3]; 10 wt % fly ash C1, class C (LOI 1.62%) slurry, Air 30/Air 40 0.105 wt %", "value": 84, "unit": "wt %"}, {"measurement": "Adsorption (wt % Adsorbed)", "setting": "[3]; 10 wt % fly ash C2 (LOI 3.32%) slurry", "value": 17, "unit": "wt %"}, {"measurement": "Adsorption (wt % Adsorbed)", "setting": "[3]; 10 wt % fly ash M1 (LOI […]) slurry, Air 30/Air 40 0.105 wt %", "value": 27, "unit": "wt %"}, {"measurement": "Adsorption (wt % Adsorbed)", "setting": "[3]; 10 wt % fly ash M2 (LOI 5.34%) slurry, Air 30/Air 40 0.105 wt %", "value": 13, "unit": "wt %"}, {"measurement": "Adsorption (wt % Adsorbed)", "setting": "[3]; 10 wt % fly ash M3 (LOI 11.33%) slurry, Air 30/Air 40 0.105 wt %", "value": 18, "unit": "wt %"}, {"measurement": "Adsorption (wt % Adsorbed)", "setting": "[3]; 10 wt % fly ash N (LOI 0.30%) slurry", "value": 26, "unit": "wt %"}, {"measurement": "Precipitation (wt % precipitated)", "setting": "[4]; solution extracted from 10 wt % fly ash B1 (LOI 4.36%) slurry", "value": 0, "unit": "wt %"}, {"measurement": "Precipitation (wt % precipitated)", "setting": "[4]; solution extracted from 10 wt % fly ash C1, class C (LOI 1.62%) slurry", "value": 31, "unit": "wt %"}, {"measurement": "Precipitation (wt % precipitated)", "setting": "[4]; solution extracted from 10 wt % fly ash C2 (LOI 3.32%) slurry", "value": 0, "unit": "wt %"}, {"measurement": "Precipitation (wt % precipitated)", "setting": "[4]; solution extracted from 10 wt % fly ash M1 (LOI […]) slurry", "value": 0, "unit": "wt %"}, {"measurement": "Precipitation (wt % precipitated)", "setting": "[4]; solution extracted from 10 wt % fly ash M2 (LOI 5.34%) slurry", "value": 0, "unit": "wt %"}, {"measurement": "Precipitation (wt % precipitated)", "setting": "[4]; solution extracted from 10 wt % fly ash M3 (LOI 11.33%) slurry", "value": 0, "unit": "wt %"}, {"measurement": "Precipitation (wt % precipitated)", "setting": "[4]; solution extracted from 10 wt % fly ash N (LOI 0.30%) slurry", "value": 0, "unit": "wt %"}, {"measurement": "Air entrained at 66 min", "setting": "[5]; 50:50 fly ash B1 (LOI 4.36%):PCA paste", "value": 17, "unit": "vol %"}, {"measurement": "Air entrained at 66 min", "setting": "[5]; 50:50 fly ash D (LOI […]):PCA paste", "value": 24, "unit": "vol %"}, {"measurement": "Air entrained at 66 min", "setting": "[5]; 50:50 fly ash M2 (LOI 5.34%):PCA paste", "value": 11, "unit": "vol %"}, {"measurement": "Air entrained", "setting": "[5]; PCA cement paste, 0.0125% SA or AEA alone, Maximum air protocol", "value": 7, "unit": "vol %"}, {"measurement": "Air entrained at 66 min", "setting": "[5]; PCA paste, no fly ash", "value": 23, "unit": "vol %"}, {"measurement": "air entrained (average)", "setting": "[5]; fly ash:cement pastes, SA added at four (4) times the fixed Air 30 dosage (0.0125%)", "value": 14, "unit": "%"}]}
